Results as given in patent US4100299A, “Pharmaceutically active 2-omega-aminoalkoxydiphenylmethylmethanes” (Mitsubishi Chemical Industries Limited, priority 1977, dated 1978).
Counter-ions that a name gives are not always drawn.

Columns and labels:
[1] = test system: reserpine induced hypothermia; assay: Antireserpine activity: antagonism of reserpine induced hypothermia (antidepressant activity); assay type: in vivo; conditions: for Antireserpine Activity in Mice, Relative Potency: relative to Amitriptyline = 1, i.p., reserpine 5 mg/kg i.p.
in vivo = conditions: mouse, ip
traction test = assay: Muscle relaxant action: traction test (CNS depressant activity, neurological deficit); assay type: in vivo; conditions: Mus musculus, ip, mice
Protocol: (§1) The compounds were administered intraperitoneally and the activities of the compounds were compared with those of Amitriptyline.

[2] = test system: spontaneous motor activity; assay: Spontaneous motor activity depression (ANIMEX apparatus; CNS depressant activity); assay type: in vivo; conditions: mice
Protocol: as §1

mice = conditions: i.p.
[3] = test system: electroshock induced tonic extensor; assay: Anticonvulsant activity: antagonism of electroshock induced tonic extensor; assay type: in vivo; conditions: Mus musculus, ip, mice, dose which prevents 50% of each response
Protocol: as §1

tremorine induced tremor = assay: Antitremorine effect (central anticholinergic effect); assay type: in vivo; conditions: mice
Protocol: as §1

CC(c1ccccc1)c1ccccc1OCCCN(C)C (centres unmarked) [2-(3-dimethylaminopropoxy)diphenylmethylmethane]
Antireserpine Activity in Mice, Relative Potency [1]: 0.34
LD50 (in vivo): 155 mg/kg

CC(c1ccccc1)c1ccccc1OCCCCN(C)C (centres unmarked) [2-(4-dimethylaminobutoxy)diphenylmethylmethane hydrochloride]
Antireserpine Activity in Mice, Relative Potency [1]: 0.36
LD50 (in vivo): 110 mg/kg

CNCCCCOc1ccccc1C(C)c1ccccc1 (centres unmarked) [2-(4-methylaminobutoxy)diphenylmethylmethane hydrochloride]
ED50 (traction test): > 60 mg/kg
antireserpine activity (in words) ([1]; mice, i.p., compared with Amitriptyline): antireserpine activity comparable to that of Amitriptyline
Antireserpine Activity in Mice, Relative Potency [1]: 0.66
ED50 ([2]; Mus musculus, ip, ANIMEX apparatus): 32 mg/kg
CNS depressant action (in words) ([2]; i.p., traction test and spontaneous motor activity): weak CNS depressant
toxicity (in words) (mice): low toxicity
ED50 [3]: 25 mg/kg
ED50 (tremorine induced tremor; Mus musculus, ip, tremorine induced tremor): 20 mg/kg
anticholinergic action (in words) (tremorine induced tremor; i.p.): weak CNS depressant and anticholinergic action
LD50 (in vivo): 140 mg/kg
